ChEMBL document CHEMBL4340550, “Structure based designing of triazolopyrimidone-based reversible inhibitors for kinases involved in NSCLC” (Bioorg Med Chem Lett, 2019)

Assays:
[1] = molecular target: Hepatocyte growth factor receptor (Homo sapiens, UniProt P08581); assay: Inhibition of human recombinant His-tagged cMET expressed in baculovirus expression system reduction in phosphorylation using tyrosine 6 peptide as substrate after 60 mins FRET based Z'-LYTE assay
[2] = molecular target: Epidermal growth factor receptor (Homo sapiens, UniProt P00533, L858R); assay: Inhibition of human recombinant GST-tagged EGFR L858R mutant expressed in baculovirus expression system reduction in phosphorylation using tyrosine 4 peptide as substrate after 60 mins FRET based Z'-LYTE assay
Sequence of Epidermal growth factor receptor (Homo sapiens, UniProt P00533, L858R) (P00533 25-1210 L858R limits assumed): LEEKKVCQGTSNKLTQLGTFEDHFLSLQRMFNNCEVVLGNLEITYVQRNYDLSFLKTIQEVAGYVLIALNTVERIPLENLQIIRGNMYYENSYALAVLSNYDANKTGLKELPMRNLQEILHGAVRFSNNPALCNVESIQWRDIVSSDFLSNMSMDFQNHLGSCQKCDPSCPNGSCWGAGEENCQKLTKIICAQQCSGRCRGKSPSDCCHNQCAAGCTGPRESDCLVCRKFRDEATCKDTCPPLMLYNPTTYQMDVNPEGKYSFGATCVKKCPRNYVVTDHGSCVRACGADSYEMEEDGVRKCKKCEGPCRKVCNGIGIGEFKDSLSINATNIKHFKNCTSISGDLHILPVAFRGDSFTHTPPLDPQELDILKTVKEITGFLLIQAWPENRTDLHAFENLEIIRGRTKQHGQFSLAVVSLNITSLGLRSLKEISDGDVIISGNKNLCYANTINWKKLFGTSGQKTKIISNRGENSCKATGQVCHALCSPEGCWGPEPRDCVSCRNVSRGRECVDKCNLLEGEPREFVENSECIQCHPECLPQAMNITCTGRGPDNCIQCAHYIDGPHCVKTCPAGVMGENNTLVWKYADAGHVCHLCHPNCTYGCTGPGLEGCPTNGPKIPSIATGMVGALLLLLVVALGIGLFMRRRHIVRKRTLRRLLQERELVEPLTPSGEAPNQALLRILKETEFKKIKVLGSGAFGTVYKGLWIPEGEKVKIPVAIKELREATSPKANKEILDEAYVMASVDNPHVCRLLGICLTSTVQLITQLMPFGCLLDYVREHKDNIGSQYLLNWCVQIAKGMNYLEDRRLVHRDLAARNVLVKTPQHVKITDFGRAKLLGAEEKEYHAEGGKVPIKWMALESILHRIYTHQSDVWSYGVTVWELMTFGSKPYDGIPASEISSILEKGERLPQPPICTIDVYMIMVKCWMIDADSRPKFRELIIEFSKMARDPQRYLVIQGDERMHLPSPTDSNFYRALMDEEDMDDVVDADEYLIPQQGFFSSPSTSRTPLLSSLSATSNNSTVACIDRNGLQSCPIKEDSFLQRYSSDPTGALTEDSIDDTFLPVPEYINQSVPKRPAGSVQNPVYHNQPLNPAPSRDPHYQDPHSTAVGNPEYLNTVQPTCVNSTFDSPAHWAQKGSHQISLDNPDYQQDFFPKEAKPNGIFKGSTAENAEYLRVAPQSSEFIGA

A549 [3] = assay: cells; settings: Homo sapiens, A549, 24 h
Description: Antiproliferative activity against human A549 cells assessed as reduction in cell viability after 24 hrs by MTT assay

NCI-H460 [4] = assay: Antiproliferative activity against human H460 cells assessed as reduction in cell viability after 24 hrs by MTT assay; format: functional, cell-based; settings: NCI-H460, 24 h
A-431 [5] = assay: Antiproliferative activity against human A431 cells assessed as reduction in cell viability after 24 hrs by MTT assay; format: functional, cell-based; settings: A-431, 24 h
[6] = molecular target: Epidermal growth factor receptor (Homo sapiens, UniProt P00533, L858R/T790M); assay: Inhibition of human recombinant GST-tagged EGFR L858R/T790M mutant expressed in baculovirus expression system reduction in phosphorylation using tyrosine 4 peptide as substrate after 60 mins FRET based Z'-LYTE assay
Sequence of Epidermal growth factor receptor (Homo sapiens, UniProt P00533, L858R/T790M) (P00533 25-1210 T790M/L858R limits assumed): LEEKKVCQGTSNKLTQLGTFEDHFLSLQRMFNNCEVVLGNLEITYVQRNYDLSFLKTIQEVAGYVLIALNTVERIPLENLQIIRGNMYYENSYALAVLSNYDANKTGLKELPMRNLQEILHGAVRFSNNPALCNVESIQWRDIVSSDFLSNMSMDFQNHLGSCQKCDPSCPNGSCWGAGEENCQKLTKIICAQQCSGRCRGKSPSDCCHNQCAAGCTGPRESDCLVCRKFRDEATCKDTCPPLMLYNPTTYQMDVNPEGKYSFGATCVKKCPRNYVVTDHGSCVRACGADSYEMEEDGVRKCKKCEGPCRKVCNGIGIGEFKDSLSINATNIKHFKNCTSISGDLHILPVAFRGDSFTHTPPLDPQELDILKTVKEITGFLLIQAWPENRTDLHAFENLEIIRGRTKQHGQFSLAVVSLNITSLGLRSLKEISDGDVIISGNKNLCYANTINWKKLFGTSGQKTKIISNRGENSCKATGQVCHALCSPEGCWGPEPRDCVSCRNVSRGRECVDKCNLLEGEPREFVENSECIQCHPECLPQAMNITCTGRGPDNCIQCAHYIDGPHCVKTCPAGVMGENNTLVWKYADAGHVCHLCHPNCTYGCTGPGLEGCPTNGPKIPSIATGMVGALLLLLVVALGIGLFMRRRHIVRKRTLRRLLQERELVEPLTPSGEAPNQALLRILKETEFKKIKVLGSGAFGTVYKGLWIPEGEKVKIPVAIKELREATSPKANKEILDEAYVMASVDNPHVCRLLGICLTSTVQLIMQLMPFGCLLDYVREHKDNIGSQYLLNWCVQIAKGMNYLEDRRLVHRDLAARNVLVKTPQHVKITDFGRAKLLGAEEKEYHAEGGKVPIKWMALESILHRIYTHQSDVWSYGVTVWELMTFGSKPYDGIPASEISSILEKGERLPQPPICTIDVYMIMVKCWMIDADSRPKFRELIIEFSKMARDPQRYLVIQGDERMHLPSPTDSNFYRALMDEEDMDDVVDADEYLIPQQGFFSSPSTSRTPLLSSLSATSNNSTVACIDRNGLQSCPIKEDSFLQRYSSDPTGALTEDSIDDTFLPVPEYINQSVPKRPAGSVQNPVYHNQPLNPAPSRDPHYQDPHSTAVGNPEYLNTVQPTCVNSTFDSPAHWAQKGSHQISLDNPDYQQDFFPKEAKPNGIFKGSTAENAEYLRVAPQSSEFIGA

A-431 [7] = assay: Antiproliferative activity against human A431 cells assessed as cell viability at 40 uM after 48 hrs by MTT assay relative to control; format: functional; settings: A-431, 48 h, read-out: Activity
A549 [8] = assay: Antiproliferative activity against human A549 cells assessed as cell viability at 40 uM after 48 hrs by MTT assay relative to control; format: functional; settings: A549, 48 h, read-out: Activity
A-431 [9] = assay: Antiproliferative activity against human A431 cells assessed as cell viability at 20 uM after 48 hrs by MTT assay relative to control; format: functional; settings: A-431, 48 h, read-out: Activity
NCI-H460 [10] = assay: Antiproliferative activity against human H460 cells assessed as cell viability at 30 uM after 48 hrs by MTT assay relative to control; format: functional; settings: NCI-H460, 48 h, read-out: Activity
A-431 [11] = assay: Antiproliferative activity against human A431 cells assessed as cell viability at 10 uM after 48 hrs by MTT assay relative to control; format: functional; settings: A-431, 48 h, read-out: Activity
A549 [12] = assay: Antiproliferative activity against human A549 cells assessed as cell viability at 20 uM after 48 hrs by MTT assay relative to control; format: functional; settings: A549, 48 h, read-out: Activity
A-431 [13] = assay: Antiproliferative activity against human A431 cells assessed as cell viability at 30 uM after 48 hrs by MTT assay relative to control; format: functional; settings: A-431, 48 h, read-out: Activity
NCI-H460 [14] = assay: Antiproliferative activity against human H460 cells assessed as cell viability at 10 uM after 48 hrs by MTT assay relative to control; format: functional; settings: NCI-H460, 48 h, read-out: Activity
A549 [15] = assay: Antiproliferative activity against human A549 cells assessed as cell viability at 10 uM after 48 hrs by MTT assay relative to control; format: functional; settings: A549, 48 h, read-out: Activity
NCI-H460 [16] = assay: Antiproliferative activity against human H460 cells assessed as cell viability at 40 uM after 48 hrs by MTT assay relative to control; format: functional; settings: NCI-H460, 48 h, read-out: Activity
A549 [17] = assay: Antiproliferative activity against human A549 cells assessed as cell viability at 30 uM after 48 hrs by MTT assay relative to control; format: functional; settings: A549, 48 h, read-out: Activity
NCI-H460 [18] = assay: Antiproliferative activity against human H460 cells assessed as cell viability at 20 uM after 48 hrs by MTT assay relative to control; format: functional; settings: NCI-H460, 48 h, read-out: Activity

Sequence of Hepatocyte growth factor receptor (P08581 whole entry): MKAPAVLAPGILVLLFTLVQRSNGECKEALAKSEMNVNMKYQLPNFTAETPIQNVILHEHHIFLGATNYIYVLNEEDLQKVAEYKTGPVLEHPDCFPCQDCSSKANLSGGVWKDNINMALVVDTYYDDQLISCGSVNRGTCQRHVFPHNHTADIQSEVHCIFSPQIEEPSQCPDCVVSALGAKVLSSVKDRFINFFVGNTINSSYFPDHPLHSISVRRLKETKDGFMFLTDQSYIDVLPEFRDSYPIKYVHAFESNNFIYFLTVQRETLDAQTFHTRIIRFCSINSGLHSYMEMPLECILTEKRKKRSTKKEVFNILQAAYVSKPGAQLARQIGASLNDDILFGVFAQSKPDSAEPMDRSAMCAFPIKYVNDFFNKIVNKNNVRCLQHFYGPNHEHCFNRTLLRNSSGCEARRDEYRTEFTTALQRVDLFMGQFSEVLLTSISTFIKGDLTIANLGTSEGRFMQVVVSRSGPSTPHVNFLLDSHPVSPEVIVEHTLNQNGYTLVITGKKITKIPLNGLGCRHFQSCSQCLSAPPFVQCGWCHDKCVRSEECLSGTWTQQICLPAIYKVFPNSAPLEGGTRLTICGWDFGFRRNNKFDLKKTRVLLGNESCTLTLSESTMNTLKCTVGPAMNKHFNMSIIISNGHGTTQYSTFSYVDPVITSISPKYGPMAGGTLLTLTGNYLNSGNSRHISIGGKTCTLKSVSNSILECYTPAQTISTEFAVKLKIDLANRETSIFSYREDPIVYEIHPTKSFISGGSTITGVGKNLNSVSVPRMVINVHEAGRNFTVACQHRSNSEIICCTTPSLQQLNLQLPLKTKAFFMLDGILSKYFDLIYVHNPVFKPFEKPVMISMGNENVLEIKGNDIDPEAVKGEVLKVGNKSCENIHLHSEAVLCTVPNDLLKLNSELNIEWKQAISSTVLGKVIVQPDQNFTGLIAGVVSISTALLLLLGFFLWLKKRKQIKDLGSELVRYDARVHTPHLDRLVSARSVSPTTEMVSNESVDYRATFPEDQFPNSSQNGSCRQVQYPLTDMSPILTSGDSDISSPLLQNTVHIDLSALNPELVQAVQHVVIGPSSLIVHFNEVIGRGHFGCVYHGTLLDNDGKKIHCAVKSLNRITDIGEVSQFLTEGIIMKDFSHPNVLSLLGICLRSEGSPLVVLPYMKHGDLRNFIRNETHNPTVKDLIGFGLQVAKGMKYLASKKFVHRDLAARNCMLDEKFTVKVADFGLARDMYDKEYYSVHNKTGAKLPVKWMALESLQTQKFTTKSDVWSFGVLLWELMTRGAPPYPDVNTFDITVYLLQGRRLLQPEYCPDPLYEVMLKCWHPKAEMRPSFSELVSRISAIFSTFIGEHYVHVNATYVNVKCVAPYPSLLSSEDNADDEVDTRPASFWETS

Compound | IC50 [1] | IC50 [2] | IC50 (A549 [3]) | IC50 (NCI-H460 [4]) | IC50 (A-431 [5]) | IC50 [6] | viability at 40 µM (A-431 [7]) | viability at 40 µM (A549 [8]) | viability at 20 µM (A-431 [9]) | viability at 30 µM (NCI-H460 [10]) | viability at 10 µM (A-431 [11]) | viability at 20 µM (A549 [12]) | viability at 30 µM (A-431 [13]) | viability at 10 µM (NCI-H460 [14]) | viability at 10 µM (A549 [15]) | viability at 40 µM (NCI-H460 [16]) | viability at 30 µM (A549 [17]) | viability at 20 µM (NCI-H460 [18])
Cc1cc(O)n2nc(SCc3cccc(Cl)c3)nc2n1 | 92 nM | 131 nM | > 80000 nM | > 80000 nM | > 40000 nM | 59 nM |  |  |  |  |  |  |  |  |  |  |  | 
Cc1cc(=O)n2nc(SCc3ccc(Cl)cc3)nc2[nH]1 | 113 nM | 54 nM | 61400 nM | 56500 nM | 32500 nM | 182 nM |  |  |  |  |  |  |  |  |  |  |  | 
Cc1cc(=O)n2nc(SCc3cccc(C(F)(F)F)c3)nc2[nH]1 | 94 nM | 81 nM | 72000 nM | 65800 nM | 21800 nM | 84 nM |  |  |  |  |  |  |  |  |  |  |  | 
Cc1cc(=O)n2nc(SCc3ccc(F)cc3)nc2[nH]1 | 203 nM | 52 nM | > 80000 nM | > 80000 nM | > 40000 nM | 56 nM |  |  |  |  |  |  |  |  |  |  |  | 
Cc1cc(=O)n2nc(SCc3ccc([N+](=O)[O-])cc3)nc2[nH]1 | 104 nM | 107 nM | > 80000 nM | > 80000 nM | > 40000 nM | 76 nM |  |  |  |  |  |  |  |  |  |  |  | 
Cc1cc(=O)n2nc(SCc3ccc(C(C)C)cc3)nc2[nH]1 | 50 nM | 80 nM | 35200 nM | 31800 nM | 17300 nM | 62 nM | 17.7% | 43.4% | 50.7% | 56% | 71.7% | 79.6% | 38.8% | 86.7% | 89.7% | 41.8% | 65.3% | 71.6%
Cc1ccc(CSc2nc3[nH]c(C)cc(=O)n3n2)cc1 | 79 nM | 311 nM | 50100 nM | 49900 nM | 15800 nM | 168 nM | 32.5% |  | 62.5% |  | 75.8% |  | 41.7% |  |  |  |  | 
Cc1cc(=O)n2nc(SCc3cccc([N+](=O)[O-])c3)nc2[nH]1 | 89 nM | 157 nM | > 80000 nM | > 80000 nM | > 40000 nM | 77 nM |  |  |  |  |  |  |  |  |  |  |  | 
Cc1cc(=O)n2nc(SCc3ccc(C(C)(C)C)cc3)nc2[nH]1 | 65 nM |  | 60500 nM | 59000 nM | 24400 nM |  |  |  |  |  |  |  |  |  |  |  |  | 
Cc1cc(=O)n2nc(SCc3ccc(Cl)cc3Cl)nc2[nH]1 | 42 nM | 141 nM | 34900 nM | 27200 nM | 18200 nM | 141 nM |  | 46.8% |  | 51% |  | 77% |  | 83.5% | 88.3% | 34.9% | 61.2% | 65.7%
